Patent publication US20020058701A1 (priority 2000, published 2002)

Experiments:
[1] = test system: C57BL/ks diabetic (db/db) mice; assay: Glucose-lowering (plasma glucose) in diabetic db/db mice; assay type: in vivo; conditions: for mean glucose levels declined from the baseline value / mean glucose levels declined from the baseline values / mean glucose levels declined from baseline values: value = size of decline; for Change in Glucose (mg/dL) 3 h: 3 h after initial dose, vehicle −8.0; for Change in Glucose (mg/dL) 3 h / Change in Glucose (mg/dL) 6 h: Table 1; for Change in Glucose (mg/dL) 6 h / Change in Glucose (mg/dL) 6 H: 6 h after initial dose; for Change in Glucose (mg/dL) 6 h: vehicle 64.5; for Change in Glucose (mg/dL) 8 h: 8 h after initial dose, vehicle 79.5; for Change in Glucose (mg/dL) 24 h: 24 h after initial dose, vehicle 18.6; for Change in Glucose (mg/dL) 54 H: 54 h after initial dose; for reduction in plasma glucose relative to vehicle (control) (in words): oral
Experimental: (§1) Genetically altered obese diabetic mice (designated C57BL/ks diabetic or db/db) were purchased from the Jackson Laboratory (Bar Harbor, Me., USA), and served as experimental animals. Male animals between the ages of 8-9 weeks were employed in the studies described here. Animals were housed (4 mice/cage) under standard laboratory conditions at 22° C. and 50% relative humidity, and were maintained on a diet of Purina rodent chow and water ad libitum. Prior to treatment, blood was collected from the tail vein of each animal. Mice that had plasma glucose levels between 350 and 600 mg/dL were used. Each treatment group consisted of eight mice that were distributed so that the mean glucose levels were equivalent in each group at the start of the study. Db/db mice received, orally by gavage: the experimental compound administered at 62.5, 125, or 250 mg/kg/day (unless otherwise noted), or metformin administered at […] for 1-3 days. Test compounds were delivered in a liquid vehicle containing 0.25% (w/v) carboxymethyl-cellulose, 1% (v/v) Tween […] (polyoxyethylene sorbitan monosterate), and up to 10% (v/v) dimethyl sulfoxide (DMSO) in a volume of 10 ml/kg. Blood was sampled from the tail vein at three hours, six, eight, twenty-four, and thirty hours post-administration (the first administration) of the particular compound in non-fasted conditions. Experiments 3-5 also sampled blood at fifty-four hours post-administration (the first administration) of the particular compound in non-fasted conditions. Blood samples were analyzed for plasma glucose levels. Individual body weights and mean food consumption (each cage) were also measured daily.
The isolated test substances were prepared as described previously (vide supra). Metformin (1,1-dimethylbiguanide), carboxymethyl cellulose and Tween 60 were purchased from Sigma Chemical Co. (St. Louis, Mo., USA; catalog #'s D-5035, C-4888, and p-1629, respectively). Plasma glucose levels were determined colorimetrically using glucose oxidase (Sigma Chemical Co.; Sigma catalog #315). Significant differences between groups (comparing compound-treated to vehicle-treated) were evaluated using analysis of variance and Fisher's post-hoc test.
Vehicle, metformin (250 mg/kg) or enriched extract (1000 mg/kg) were given to db/db mice at 0(initial), 8, 24, 32, 48, 56, 72, 80, and 96 hours post initial dose.
Plasma glucose levels were measured at baseline, 3 (day 1), 51 hours (Day 3), and 99 hours (Day 5).

[2] = Body weights and food consumption in diabetic db/db mice; assay type: in vivo; conditions: for Food Intake (g/mouse) 0-24 h: vehicle 6.8; for Body weight (g/mouse) (mean) 24 hr: vehicle 37.8 ± 0.8
Experimental: as §1

[3] = 250 mg/kg, vehicle 38.0 ± 0.8, Table 3
[4] = 250 mg/kg oral, dosed at 0, 8 and 24 h
[5] = 250 mg/kg oral, dosed at 0, 8 and 24 h, Table 2
[6] = 125 mg/kg, vehicle 6.1, Table 11
[7] = 125 mg/kg, vehicle 39.4 ± 0.4, Table 11
[8] = 125 mg/kg, vehicle 40.1 ± 0.4, Table 11
[9] = 125 mg/kg q.d. oral at 0, 24, 48 h, vehicle 20.0, Table 10
[10] = 125 mg/kg q.d. oral at 0, 24, 48 h, 30 h after initial dose, vehicle 0.1, Table 10
[11] = 125 mg/kg q.d. oral at 0, 24, 48 h, vehicle −20.2, Table 10
[12] = Table 10, 125 mg/kg, fifty-four hours after initial dosing
[13] = Table 10, 125 mg/kg, six hours after initial dosing
[14] = Table 10, 125 mg/kg, thirty hours after initial dosing
[15] = dose level of 125 mg/kg, Tables 8 and 10

3-hydroxy-4-(3-methyl-2-butenyl)-5-methoxystilbene-2-carboxylic acid [Compound C]
mean glucose levels declined from the baseline value ([1]; Tables 4 and 6, 125 mg/kg, fifty-four hours after initial dosing): 60.4 mg/dL | mean glucose levels declined from the baseline values ([1]; Tables 4 and 6, 250 mg/kg, fifty-four hours after initial dosing): 122.0 mg/dL

COc1cc(O)cc(/C=C/c2ccccc2)c1 [Compound B, 3-hydroxy-5-methoxystilbene]
Food Intake (g/mouse) 0-24 h ([2]; 250 mg/kg, Table 3): 5.9 g/mouse | Body weight (g/mouse) (mean) 0 h [2, 3]: 37.8 ± 0.4 g/mouse | Body weight (g/mouse) (mean) 24 hr ([2]; 250 mg/kg, Table 3): 37.8 ± 0.4 g/mouse | Change in Glucose (mg/dL) 3 h [1, 4]: -35.3 mg/dL | Change in Glucose (mg/dL) 6 h [1, 4]: +29.3 mg/dL | Change in Glucose (mg/dL) 8 h [1, 5]: +52.2 mg/dL | Change in Glucose (mg/dL) 24 h [1, 5]: -50.6 mg/dL | Change in Glucose (mg/dL) 30 h ([1]; 250 mg/kg oral, dosed at 0, 8 and 24 h, 30 h after initial dose, Table 2): +36.5 mg/dL

COc1cc(/C=C/c2ccccc2)c(C(=O)O)c(O)c1CC=C(C)C [Compound C, 3-hydroxy-4-(3-methyl-2-butenyl)-5-methoxystilbene-2-carboxylic acid]
adverse effect on food intake or body weight (in words) ([2]; 62.5 mg/kg, 125 mg/kg, and 250 mg/kg, Tables 5 and 7): absence of any significantly adverse effect | Food Intake (g/mouse) 0-48 h ([2]; 62.5 mg/kg, vehicle 6.3, Tables 5 and 7): 5.9 g/mouse | Body weight (g/mouse) (mean) 0 h ([2]; 62.5 mg/kg, vehicle 39.2 ± 0.5, Tables 5 and 7): 37.4 ± 0.4 g/mouse | Body weight (g/mouse) (mean) 48 hr ([2]; 62.5 mg/kg, vehicle 39.5 ± 0.5, Tables 5 and 7): 38.2 ± 0.5 g/mouse | Food Intake (g/mouse) 0-48 h ([2]; 125 mg/kg, vehicle 6.3, Tables 5 and 7): 5.6 g/mouse | Body weight (g/mouse) (mean) 0 h ([2]; 125 mg/kg, vehicle 39.2 ± 0.5, Tables 5 and 7): 39.4 ± 0.4 g/mouse | Body weight (g/mouse) (mean) 48 hr ([2]; 125 mg/kg, vehicle 39.5 ± 0.5, Tables 5 and 7): 39.7 ± 0.3 g/mouse | food intake compared with the normal food intake range (5-6 g/day/mouse) (in words) ([2]; 250 mg/kg): less than that of the normal food intake range | Food Intake (g/mouse) 0-24 h ([2]; 250 mg/kg, Table 3): 3.3 g/mouse | Food Intake (g/mouse) 0-48 h ([2]; 250 mg/kg, vehicle 6.3, Tables 5 and 7): 4.3 g/mouse | Body weight (g/mouse) (mean) 0 h [2, 3]: 38.7 ± 0.8 g/mouse | Body weight (g/mouse) (mean) 0 h ([2]; 250 mg/kg, vehicle 39.2 ± 0.5, Tables 5 and 7): 39.1 ± 0.8 g/mouse | Body weight (g/mouse) (mean) 24 hr ([2]; 250 mg/kg, Table 3): 38.0 ± 0.7 g/mouse | Body weight (g/mouse) (mean) 48 hr ([2]; 250 mg/kg, vehicle 39.5 ± 0.5, Tables 5 and 7): 38.4 ± 0.1 g/mouse | adverse effect on food intake or body weight (in words) ([2]; 250 mg/kg, Table 3): absence of any significantly adverse effect | Change in Glucose (mg/dL) 6 H ([1]; 62.5 mg/kg q.d. oral at 0, 24, 48 h, vehicle 35.9, Tables 4 and 6 (dose of row)): -18.6 mg/dL | Change in Glucose (mg/dL) 30 H ([1]; 62.5 mg/kg q.d. oral at 0, 24, 48 h, 30 h after initial dose, vehicle 79.6, Tables 4 and 6): -40.7 mg/dL | Change in Glucose (mg/dL) 54 H ([1]; 62.5 mg/kg q.d. oral at 0, 24, 48 h, vehicle 60.3, Tables 4 and 6): 65.4 mg/dL | Change in Glucose (mg/dL) 6 H ([1]; 125 mg/kg q.d. oral at 0, 24, 48 h, vehicle 35.9, Tables 4 and 6 (dose of row)): -34.3 mg/dL | Change in Glucose (mg/dL) 30 H ([1]; 125 mg/kg q.d. oral at 0, 24, 48 h, 30 h after initial dose, vehicle 79.6, Tables 4 and 6): -69.7 mg/dL | Change in Glucose (mg/dL) 54 H ([1]; 125 mg/kg q.d. oral at 0, 24, 48 h, vehicle 60.3, Tables 4 and 6): -60.4 mg/dL | Change in Glucose (mg/dL) 3 h [1, 4]: -10.4 mg/dL | Change in Glucose (mg/dL) 6 h [1, 4]: -8.4 mg/dL | Change in Glucose (mg/dL) 8 h [1, 5]: +4.5 mg/dL | Change in Glucose (mg/dL) 24 h [1, 5]: -122.8 mg/dL | Change in Glucose (mg/dL) 6 H ([1]; 250 mg/kg q.d. oral at 0, 24, 48 h, vehicle 35.9, Tables 4 and 6): -120.8 mg/dL | Change in Glucose (mg/dL) 30 H ([1]; 250 mg/kg q.d. oral at 0, 24, 48 h, 30 h after initial dose, vehicle 79.6, Tables 4 and 6): -221.4 mg/dL | Change in Glucose (mg/dL) 54 H ([1]; 250 mg/kg q.d. oral at 0, 24, 48 h, vehicle 60.3, Tables 4 and 6): -122.0 mg/dL | mean glucose levels declined from the baseline value ([1]; Table 8, 125 mg/kg, thirty hours after initial dosing): 12.2 mg/dL | mean glucose levels rose from the baseline values ([1]; Tables 1-2, 250 mg/kg, eight hours after initial dosing, value = size of rise): 4.5 mg/dL | mean glucose levels declined from the baseline value ([1]; Tables 1-2, 250 mg/kg, six hours after initial dosing): 8.4 mg/dL | mean glucose levels rose from the baseline value ([1]; Tables 1-2, 250 mg/kg, thirty hours after dosing, value = size of rise): 36.5 mg/dL | mean glucose levels declined from the baseline values ([1]; Tables 1-2, 250 mg/kg, twenty-four hours after initial dosing): 122.8 mg/dL | mean glucose levels declined from the baseline value ([1]; Tables 4 and 6, 125 mg/kg, six hours after initial dosing): 34.3 mg/dL | reduction in plasma glucose relative to vehicle (control) (in words) ([1]; dose level of 250 mg/kg, Tables 1 and 2): statistically significant reduction | reduction in plasma glucose relative to vehicle (control) (in words) ([1]; dose levels of 62.5, 125, and 250 mg/kg, Tables 4 and 6): statistically significant reduction

COc1cc(/C=C/c2ccccc2)cc(O)c1CC=C(C)C [Compound D, 3-hydroxy-5-methoxy-4-(3-methyl-2-butenyl)stilbene]
Food Intake (g/mouse) 0-48 h [2, 6]: 5.7 g/mouse | Body weight (g/mouse) (mean) 0 h [2, 7]: 39.3 ± 0.6 g/mouse | Body weight (g/mouse) (mean) 48 hr [2, 8]: 39.7 ± 0.7 g/mouse | Change in Glucose (mg/dL) 6 H [1, 9]: […] | Change in Glucose (mg/dL) 30 H [1, 10]: […] | Change in Glucose (mg/dL) 54 H [1, 11]: […] | mean glucose levels declined from baseline values [1, 12]: […] | mean glucose levels declined from the baseline value [1, 13]: […] | mean glucose levels declined from the baseline value [1, 14]: […] | reduction in plasma glucose relative to vehicle (control) (in words) [1, 15]: […]

COc1cc(O)cc(CCc2ccccc2)c1CC=C(C)C [Compound E]
Food Intake (g/mouse) 0-48 h ([2]; 125 mg/kg, vehicle 6.0, Table 9): 5.7 g/mouse | Food Intake (g/mouse) 0-48 h [2, 6]: 5.7 g/mouse | Body weight (g/mouse) (mean) 0 h [2, 7]: 39.6 ± 0.3 g/mouse | Body weight (g/mouse) (mean) 0 h ([2]; 125 mg/kg, vehicle 39.8 ± 0.7, Table 9): 39.5 ± 0.5 g/mouse | Body weight (g/mouse) (mean) 48 hr ([2]; 125 mg/kg, vehicle 39.7 ± 0.6, Table 9): 39.7 ± 0.6 g/mouse | Body weight (g/mouse) (mean) 48 hr [2, 8]: 40.2 ± 0.4 g/mouse | adverse effect on food intake or body weight (in words) ([2]; 125 mg/kg, Tables 9 and 11): absence of any significantly adverse effect | Change in Glucose (mg/dL) 6 H ([1]; 125 mg/kg q.d. oral at 0, 24, 48 h, vehicle 15.5, Table 8): -2.1 mg/dL | Change in Glucose (mg/dL) 6 H [1, 9]: -53.8 mg/dL | Change in Glucose (mg/dL) 30 H [1, 10]: -109.9 mg/dL | Change in Glucose (mg/dL) 30 H ([1]; 125 mg/kg q.d. oral at 0, 24, 48 h, 30 h after initial dose, vehicle 56.6, Table 8): -47.0 mg/dL | Change in Glucose (mg/dL) 54 H ([1]; 125 mg/kg q.d. oral at 0, 24, 48 h, vehicle 88.6, Table 8): -54.7 mg/dL | Change in Glucose (mg/dL) 54 H [1, 11]: -86.6 mg/dL | mean glucose levels declined from baseline values ([1]; Table 8, 125 mg/kg, fifty-four hours after initial dosing): 54.7 mg/dL | mean glucose levels declined from the baseline value ([1]; Table 8, printed dose 250 mg/kg, thirty hours after initial dosing): 47.0 mg/dL | mean glucose levels declined from baseline values [1, 12]: 86.6 mg/dL | mean glucose levels declined from the baseline value [1, 13]: 53.8 mg/dL | mean glucose levels declined from the baseline value [1, 14]: 109.9 mg/dL | reduction in plasma glucose relative to vehicle (control) (in words) [1, 15]: statistically significant reduction

COc1cc(O)cc(CCc2ccccc2)c1CCC(C)C [Compound F]
Food Intake (g/mouse) 0-48 h [2, 6]: 5.8 g/mouse | Body weight (g/mouse) (mean) 0 h [2, 7]: 39.3 ± 0.8 g/mouse | Body weight (g/mouse) (mean) 48 hr [2, 8]: 39.8 ± 0.8 g/mouse
